These results are taken from the NIST ThermoML archive (doi:10.1016/j.jct.2016.05.008).

For data set [1] the following is noted: Crystal; DTA.
Data set [2] can be described thus: Molar enthalpy of transition or fusion. The conditions noted are these: Crystal; DSC.

The structures appear in SMILES notation. ± gives the expanded uncertainty stated by the source.

Consider `CCCCCCCCCCCCCCCC(=O)O` [hexadecanoic acid], for which the Normal melting temperature in data set [1] is 62.00 ± 0.53 °C. In data set [2], the “Molar enthalpy of transition or fusion” value is 12.6 ± 0.55 kcal/mol.

`CCCCCCCCCCCCCCCCCC` [octadecane]: the Normal melting temperature in data set [1] is 27.80 ± 0.53 °C. The “Molar enthalpy of transition or fusion” value in data set [2] amounted to 14.7 ± 0.645 kcal/mol.

Regarding `CCCCCCCCCCCCCC(=O)O` [tetradecanoic acid], in data set [1], the Normal melting temperature is 54.00 ± 0.53 °C. In addition, the “Molar enthalpy of transition or fusion” value in data set [2] is 10.7 ± 0.478 kcal/mol.
